Read-outs that look alike come from different tables or passages of the source.
Key:
HCoV 229E = conditions: Geller et al., Antiviral Research 2010; cited from earlier work
influenza H1N1 [1] = type: cell-based; conditions: CX-1 500 μM apical
influenza H1N1 [2] = type: cell-based; conditions: day 4 post infection, CX-1 500 μM versus buffer treated cells (FIG. 5)
[3] = system: human nasal epithelial cells (MucilAir Pool); conditions: non-infected cells, LDH release from basal wash
SARS-CoV-2 [4] = assay: Microscopic examination of the cytopathogenic effect in SARS-CoV-2 infected Vero E6 cells
SARS-CoV-2 [5] = assay: PCR quantification of SARS-CoV-2 viral particles in supernatants of infected Vero E6 cells; conditions: for viral particle number, Sample #1 / viral particle number, Sample #2 / viral particle number, Sample #3: Vero E6, MOI 0.01; for viral particle number, average: average of triplicate
[6] = 24 h post-infection, versus buffer treated cells (FIG. 4 panel A)
[7] = 48 h post infection, versus buffer treated cells (FIG. 4 panel B)
[8] = CX-1 500 μM, 24 h post-infection, prophylactic setting
[9] = CX-1 500 μM, 48 h post-infection, prophylactic setting

Compound | activity against HCoV 229E (HCoV 229E) | decrease in viral genome copy (influenza H1N1 [1]; [6]) [log] | reduction in viral genome copy (influenza H1N1 [1]; [6]) [%] | decrease in viral genome copy (influenza H1N1 [1]; [7]) [log] | reduction in viral genome copy (influenza H1N1 [1]; [7]) [%] | cilia beating frequency (influenza H1N1 [2]) | cytotoxicity [3] | protection of infected cells from dying (cytopathogenic effect, microscopy) (SARS-CoV-2 [4]; prophylactic setting, 500, 100 or 20 μM, 48 h post infection (FIG. 1)) | protection of infected cells from dying (cytopathogenic effect, microscopy) (SARS-CoV-2 [4]; therapeutic setting, CX-1 added after 30 min infection, 48 h post infection (FIG. 2)) | reduction in viral genome copy number (SARS-CoV-2 [5]; 50 μM CX-1, preventive setting (FIG. 3)) [%] | viral particle number, Sample #1 (SARS-CoV-2 [5]; [8]) [viral particle number/μl] | viral particle number, Sample #2 (SARS-CoV-2 [5]; [8]) [viral particle number/μl] | viral particle number, Sample #3 (SARS-CoV-2 [5]; [8]) [viral particle number/μl] | viral particle number, average (SARS-CoV-2 [5]; [8]) [viral particle number/μl] | viral particle number, Sample #1 (SARS-CoV-2 [5]; [9]) [viral particle number/μl] | viral particle number, Sample #2 (SARS-CoV-2 [5]; [9]) [viral particle number/μl] | viral particle number, Sample #3 (SARS-CoV-2 [5]; [9]) [viral particle number/μl] | viral particle number, average (SARS-CoV-2 [5]; [9]) [viral particle number/μl] | potency (reduction in viral particles) (SARS-CoV-2 [5]; CX-1 500 μM, 48 h post-infection, prophylactic setting, versus virus only) [%] | reduction in viral genome copy number (SARS-CoV-2 [5]; lower dilutions of CX-1, preventive setting, versus infected non-treated control (FIG. 3))
1,3-bis(bithiazolyl)-tetra-para-sulfonato-calix[4]arene [C[4]S-BTZ] | very effective | – | – | – | – | – | – | – | – | – | – | – | – | – | – | – | – | – | – | –
O=S(=O)(O)c1cc2c(O)c(c1)Cc1cc(S(=O)(=O)O)cc(c1O)Cc1cc(S(=O)(=O)O)cc(c1O)Cc1cc(S(=O)(=O)O)cc(c1O)C2 [CX-1, 5,11,17,23-sulfonato-25,26,27,28-tetrahydroxycalix[4]arene] | – | −0.9 | 88 | ~0.8 | 80.5 | significantly higher | no cytotoxicity | significantly protected from dying | significantly protected from dying | 30 | 0.00 | 0.00 | 1.48 | 0.49 | 11.10 | 15.00 | 8.63 | 11.57 | 95 | over 90%
O=S(=O)(O)c1cc2c(O)c(c1)Cc1cc(S(=O)(=O)O)cc(c1O)Cc1cc(S(=O)(=O)O)cc(c1O)Cc1cc(S(=O)(=O)O)cc(c1O)C2 [C[4]S, tetra-para-sulfonato-calix[4]arene] | only very weak activity | – | – | – | – | – | – | – | – | – | – | – | – | – | – | – | – | – | – | –

From patent US20230225988A1, “ANTIVIRAL USE OF CALIXARENES” (CEBINA GmbH, priority 2020, published 2023)
